Results as given in patent US6124323A, “4-substituted piperidine analogs and their use as subtype selective NMDA receptor antagonists” (Warner-Lambert Company, priority 1998, dated 2000).
Structures can show the parent of a compound that is named as a salt.

Key:
[1] = test system: d-amphetamine induced stimulation; details: injected into rat nucleus accumbens or striatum; cited from earlier work
[2] = test system: PCP and MK801-induced behavioral arousal; details: in vivo; cited from earlier work
[3] = target: T1, NMDA receptor subunits 1A/2B (Rattus norvegicus, UniProt P35439+Q00960); experiment: Electrophysiological assay at NMDA receptor subunits expressed in Xenopus oocytes, 1A/2B; format: cell-based; details: Xenopus oocytes; glutamate 100 μm and glycine 1-100 μm; read-out: Subunits IC50, 1A/2B
T1 construct: expressed in transfected cells; host or cells: Xenopus laevis oocytes (cRNA injection; clones from Dr. P. H. Seeburg)
Summary of the method: (§1)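 Two-electrode voltage clamp of Xenopus oocytes injected with rat NR1A plus NR2A, 2B or 2C cRNA (1:1), recorded 3–21 days post-injection in Ringer's, pH 7.4. Currents evoked by glutamate (100 μm) with glycine (1–100 μm); antagonist applied by bath perfusion at rising concentrations, IC50 from logistic fit or linear regression for incomplete curves.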

[4] = test system: focal ischemia (MCA occlusion); experiment: Induction of focal ischemia (MCA occlusion), infarct volume; format: in vivo, rats; details: for Mean Infarct Volume: mean ± S.E.M.
Experimental: Induction of Focal Ischemia
Rats were intubated and maintained under anesthesia with 2% of halothane. Body temperature was maintained at 37.5° C. during surgery by means of a warming pad and a rectal probe connected to the control unit. The common carotid arteries (CCA) were isolated, and a loose silk ligature was placed around each CCA. A vertical skin incision was made between the left orbit and the auditory canal. The posterior part of the zygoma was removed and a small opening (2.0-2.5 mm) was drilled dorsorostrally to the foramen ovale under constant saline irrigation. The dura was opened with a microsurgical hook and the brain gently retracted to expose the bifurcation of the internal carotid artery and the middle cerebral artery (MCA). The ipsilateral CCA was ligated and the MCA coagulated from its origin to the olfactory tract. The contralateral CCA was occluded with an arterial clip. All cuts were sutured and an i.v. line was connected to an infusion pump for delivery of the compound of the invention. Two hours after MCA occlusion, the clip on the contralateral CCA was removed. Rectal temperature was measured 2 hours after MCA occlusion (MCA-0).

[5] = target: T2, NMDA receptor subunits 1A/2A (Rattus norvegicus, UniProt P35439+Q00959); experiment: Electrophysiological assay at NMDA receptor subunits expressed in Xenopus oocytes, 1A/2A; format: cell-based; details: glutamate 100 μm and glycine 1-100 μm
T2 construct: expressed in transfected cells; host or cells: Xenopus laevis oocytes (cRNA injection; clones from Dr. P. H. Seeburg)
Summary of the method: as §1

[6] = target: T3, NMDA receptor subunits 1A/2C (Rattus norvegicus, UniProt P35439+Q00961); experiment: Electrophysiological assay at NMDA receptor subunits expressed in Xenopus oocytes, 1A/2C; format: cell-based; details: Xenopus oocytes; glutamate 100 μm and glycine 1-100 μm; read-out: Subunits IC50, 1A/2C
T3 construct: expressed in transfected cells; host or cells: Xenopus laevis oocytes (cRNA injection; clones from Dr. P. H. Seeburg)
Summary of the method: as §1

[7] = test system: Maximal Electroshock-induced Seizures; experiment: Maximal electroshock-induced seizures (MES); format: in vivo; details: Mus musculus; mice; 50 mA, 60 pulses/sec, 1 sec
Source text: Seizures were induced by application of current (50 mA, 60 pulses/sec, 0.8 sec pulse width, 1 sec duration, d.c.) through saline-coated corneal electrodes using a Ugo Basile ECT device (Model 7801). […] A tonic seizure was defined as a hindlimb extension in excess of 90 degrees from the plane of the body.

anxiety = details: in vivo; cited from earlier work
micturition = details: rat; cited from earlier work
Parkinson's disease = details: at plasma levels leading to NMDA receptor antagonism; cited from earlier work

T1 sequence (Q00960 27-1482, other chains not shown): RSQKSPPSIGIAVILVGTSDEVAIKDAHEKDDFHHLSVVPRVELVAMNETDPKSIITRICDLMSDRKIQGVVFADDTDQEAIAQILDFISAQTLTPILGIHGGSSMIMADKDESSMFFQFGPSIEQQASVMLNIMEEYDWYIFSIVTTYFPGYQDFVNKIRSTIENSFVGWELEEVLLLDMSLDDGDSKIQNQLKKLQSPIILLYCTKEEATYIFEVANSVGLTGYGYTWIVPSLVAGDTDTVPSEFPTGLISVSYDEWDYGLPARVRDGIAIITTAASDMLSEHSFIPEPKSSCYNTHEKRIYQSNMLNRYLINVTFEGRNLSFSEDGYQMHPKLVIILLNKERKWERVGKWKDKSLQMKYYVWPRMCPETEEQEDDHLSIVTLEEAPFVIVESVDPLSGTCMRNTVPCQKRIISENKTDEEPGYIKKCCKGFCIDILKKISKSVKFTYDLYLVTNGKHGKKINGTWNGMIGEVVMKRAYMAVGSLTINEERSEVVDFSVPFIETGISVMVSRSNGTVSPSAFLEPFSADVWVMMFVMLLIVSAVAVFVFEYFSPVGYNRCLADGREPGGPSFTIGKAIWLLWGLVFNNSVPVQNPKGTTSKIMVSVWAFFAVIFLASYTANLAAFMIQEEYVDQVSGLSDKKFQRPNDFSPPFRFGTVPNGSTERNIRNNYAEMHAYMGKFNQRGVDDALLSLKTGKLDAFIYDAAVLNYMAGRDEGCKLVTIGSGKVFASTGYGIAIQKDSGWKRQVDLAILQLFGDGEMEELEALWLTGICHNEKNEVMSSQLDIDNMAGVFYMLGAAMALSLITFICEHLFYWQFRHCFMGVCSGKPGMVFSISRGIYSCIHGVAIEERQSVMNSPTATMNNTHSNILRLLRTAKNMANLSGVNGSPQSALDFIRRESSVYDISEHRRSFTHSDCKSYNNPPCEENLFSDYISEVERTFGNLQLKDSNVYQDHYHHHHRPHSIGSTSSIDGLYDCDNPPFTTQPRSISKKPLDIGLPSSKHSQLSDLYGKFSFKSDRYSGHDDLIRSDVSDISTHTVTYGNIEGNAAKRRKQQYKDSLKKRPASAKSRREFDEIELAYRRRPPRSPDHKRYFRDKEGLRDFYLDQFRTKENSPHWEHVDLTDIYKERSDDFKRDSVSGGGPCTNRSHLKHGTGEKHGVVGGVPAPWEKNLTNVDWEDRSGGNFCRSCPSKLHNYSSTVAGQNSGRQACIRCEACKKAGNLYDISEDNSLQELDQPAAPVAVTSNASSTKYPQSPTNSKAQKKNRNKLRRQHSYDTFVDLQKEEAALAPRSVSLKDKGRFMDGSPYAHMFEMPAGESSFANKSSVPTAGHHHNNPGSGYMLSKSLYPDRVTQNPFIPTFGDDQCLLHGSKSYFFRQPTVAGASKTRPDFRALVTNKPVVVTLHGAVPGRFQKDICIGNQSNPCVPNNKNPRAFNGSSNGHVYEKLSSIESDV
T3 sequence (Q00961 20-1237, other chains not shown): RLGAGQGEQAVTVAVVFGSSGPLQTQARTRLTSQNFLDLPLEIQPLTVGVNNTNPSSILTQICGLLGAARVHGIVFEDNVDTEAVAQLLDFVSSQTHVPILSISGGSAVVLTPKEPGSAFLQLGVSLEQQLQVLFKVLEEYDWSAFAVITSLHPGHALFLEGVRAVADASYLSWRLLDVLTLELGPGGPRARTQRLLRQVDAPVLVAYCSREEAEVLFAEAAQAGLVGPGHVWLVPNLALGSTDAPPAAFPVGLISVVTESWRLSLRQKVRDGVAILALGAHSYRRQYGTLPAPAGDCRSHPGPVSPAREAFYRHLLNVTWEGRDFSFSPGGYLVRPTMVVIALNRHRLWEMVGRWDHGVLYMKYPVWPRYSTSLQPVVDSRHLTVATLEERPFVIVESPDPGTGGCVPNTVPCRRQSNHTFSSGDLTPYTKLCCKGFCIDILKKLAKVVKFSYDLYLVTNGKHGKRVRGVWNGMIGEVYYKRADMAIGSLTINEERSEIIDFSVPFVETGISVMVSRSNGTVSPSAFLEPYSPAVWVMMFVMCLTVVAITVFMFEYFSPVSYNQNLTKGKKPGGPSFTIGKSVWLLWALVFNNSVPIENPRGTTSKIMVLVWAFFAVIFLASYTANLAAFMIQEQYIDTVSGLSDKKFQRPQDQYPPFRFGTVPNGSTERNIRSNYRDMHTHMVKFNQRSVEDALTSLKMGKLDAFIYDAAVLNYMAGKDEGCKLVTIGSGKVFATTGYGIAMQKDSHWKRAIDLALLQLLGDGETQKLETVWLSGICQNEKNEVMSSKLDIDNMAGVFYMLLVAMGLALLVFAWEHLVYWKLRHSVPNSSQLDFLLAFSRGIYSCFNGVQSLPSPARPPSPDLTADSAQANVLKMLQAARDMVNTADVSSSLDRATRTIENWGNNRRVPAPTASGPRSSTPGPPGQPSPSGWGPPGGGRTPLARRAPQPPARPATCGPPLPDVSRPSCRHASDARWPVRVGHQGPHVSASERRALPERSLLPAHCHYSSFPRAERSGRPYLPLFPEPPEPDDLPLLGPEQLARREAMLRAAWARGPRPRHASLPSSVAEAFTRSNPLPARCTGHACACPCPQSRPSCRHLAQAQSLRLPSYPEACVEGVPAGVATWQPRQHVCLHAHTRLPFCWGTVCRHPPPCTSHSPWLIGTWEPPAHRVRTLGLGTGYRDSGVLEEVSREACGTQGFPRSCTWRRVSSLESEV
T2 sequence (Q00959 20-1464 limits assumed, other chains not shown): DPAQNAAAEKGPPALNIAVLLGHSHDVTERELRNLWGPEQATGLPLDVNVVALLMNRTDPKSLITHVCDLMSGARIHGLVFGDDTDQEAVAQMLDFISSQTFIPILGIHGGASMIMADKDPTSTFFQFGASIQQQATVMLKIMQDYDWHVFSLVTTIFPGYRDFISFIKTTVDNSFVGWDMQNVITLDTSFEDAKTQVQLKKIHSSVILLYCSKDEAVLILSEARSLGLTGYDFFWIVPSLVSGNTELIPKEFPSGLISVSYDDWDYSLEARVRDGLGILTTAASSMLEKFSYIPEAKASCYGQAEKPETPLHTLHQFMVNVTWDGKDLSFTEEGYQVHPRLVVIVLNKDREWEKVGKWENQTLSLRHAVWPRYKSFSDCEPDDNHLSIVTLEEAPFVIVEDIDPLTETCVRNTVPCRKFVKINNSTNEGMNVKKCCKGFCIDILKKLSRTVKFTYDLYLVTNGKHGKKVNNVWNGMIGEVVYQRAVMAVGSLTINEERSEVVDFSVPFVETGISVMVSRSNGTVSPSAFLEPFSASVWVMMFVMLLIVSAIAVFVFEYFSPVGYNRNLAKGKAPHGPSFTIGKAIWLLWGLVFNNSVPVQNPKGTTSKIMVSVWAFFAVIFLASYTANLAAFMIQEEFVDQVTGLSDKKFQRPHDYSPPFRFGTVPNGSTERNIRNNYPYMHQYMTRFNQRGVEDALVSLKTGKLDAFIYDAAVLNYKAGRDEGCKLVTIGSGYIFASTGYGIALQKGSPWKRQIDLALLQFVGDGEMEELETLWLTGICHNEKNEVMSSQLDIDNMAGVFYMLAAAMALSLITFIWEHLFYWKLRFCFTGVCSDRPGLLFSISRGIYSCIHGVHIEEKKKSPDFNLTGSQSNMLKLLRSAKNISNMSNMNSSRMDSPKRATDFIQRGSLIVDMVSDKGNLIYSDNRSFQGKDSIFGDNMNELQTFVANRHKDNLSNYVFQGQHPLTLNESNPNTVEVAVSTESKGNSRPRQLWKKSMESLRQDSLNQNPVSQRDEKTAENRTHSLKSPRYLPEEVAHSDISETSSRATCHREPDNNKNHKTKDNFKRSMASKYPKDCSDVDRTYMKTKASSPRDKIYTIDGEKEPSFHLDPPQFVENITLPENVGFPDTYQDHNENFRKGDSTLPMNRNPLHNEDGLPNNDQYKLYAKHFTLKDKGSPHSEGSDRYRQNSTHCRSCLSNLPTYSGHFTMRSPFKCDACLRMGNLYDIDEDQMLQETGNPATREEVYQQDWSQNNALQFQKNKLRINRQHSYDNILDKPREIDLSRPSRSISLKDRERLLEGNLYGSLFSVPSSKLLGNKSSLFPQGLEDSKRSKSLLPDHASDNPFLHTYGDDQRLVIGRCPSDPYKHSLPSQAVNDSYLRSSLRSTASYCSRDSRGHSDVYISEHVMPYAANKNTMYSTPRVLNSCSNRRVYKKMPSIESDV

O=C(O)c1cc(O)c2c(Cl)cc(Cl)cc2n1 [5,7-dichlorokynurenic acid]
antagonism of d-amphetamine induced stimulation [1]: selectively antagonize d-amphetamine induced stimulation when injected into rat nucleus accumbens but not in striatum

N[C@@H]1CCN(O)C1=O [(+) HA-966]
block of PCP and MK801-induced behavioral arousal [2]: block PCP and MK801-induced behavioral arousal
antagonism of d-amphetamine induced stimulation [1]: selectively antagonize d-amphetamine induced stimulation when injected into rat nucleus accumbens but not in striatum

c1ccc(CC2CCN(CCOc3ccccc3)CC2)cc1 [Ex. 1, 4-Benzyl-1-(2-phenoxyethyl)piperidine]
IC50 [3]: 0.8 µM
Mean Infarct Volume ([4]; Cortex, rats, 2.5 mg/Kg i.v. bolus then 1.75 mg/Kg for 22 hours, n = 12, vehicle 120.450 ± 20.166): 50.450 ± 11.428 mm^3
% of Ischemia Protection ([4]; Cortex, rats, 2.5 mg/Kg i.v. bolus then 1.75 mg/Kg for 22 hours, p = 0.0071): 58%
Mean Infarct Volume ([4]; Subcortex, rats, 2.5 mg/Kg i.v. bolus then 1.75 mg/Kg for 22 hours, n = 12, vehicle 74.462 ± 7.481): 67.400 ± 6.775 mm^3
% of Ischemia Protection ([4]; Subcortex, rats, 2.5 mg/Kg i.v. bolus then 1.75 mg/Kg for 22 hours, p = 0.4936): 9.5%
protection from ischemia ([4]; table 4 and FIG. 1, 2.5 mg/Kg i.v. bolus then 1.75 mg/Kg for 22 hours): significant protection from ischemia
IC50 [5]: > 100 µM
IC50 [6]: > 100 µM
ED50 [7]: 2 mg/kg

Fc1ccc(OCCN2CCC(Cc3ccc(Cl)cc3)CC2)cc1 [Ex. 25, 4-(4-Chlorobenzyl)-1-(2-(4-fluorophenoxy)ethyl)piperidine hydrobromide]
IC50 [3]: 1 µM
Mean Infarct Volume ([4]; Cortex, 10 mg/Kg i.v. bolus, n = 7, vehicle 114.936 ± 22.3): 41.857 ± 19.984 mm^3
% of Ischemia Protection ([4]; Cortex, 10 mg/Kg i.v. bolus, p = 0.0381): 64%
Mean Infarct Volume ([4]; Subcortex, 10 mg/Kg i.v. bolus, n = 7, vehicle 81.564 ± 5675): 43.343 ± 17.37 mm^3
% of Ischemia Protection ([4]; Subcortex, 10 mg/Kg i.v. bolus, p = .0320): 47%
protection from ischemia ([4]; Table 5 and FIG. 2, 10 mg/Kg i.v. bolus): significant protection from ischemia
IC50 [5]: 60 µM
IC50 [6]: 80 µM
ED50 [7]: 4 mg/kg

CN(CCN1CCC(Cc2ccccc2)CC1)c1ccccc1 [Ex. 143, 4-Benzyl-1-((2-(N-methyl-N-phenyl)amino)ethyl)piperidine dihydrochloride]
IC50 [3]: 0.4 µM
IC50 [5]: 190 µM
IC50 [6]: > 300 µM
ED50 [7]: 0.5 mg/kg

Cl.Oc1ccc(OCCN2CCC(Cc3c(F)cccc3F)CC2)cc1 [Ex. 146, 1-[2-(4-Hydroxyphenoxy)ethyl]-4-(2,6-difluorobenzyl)piperidine hydrochloride]
IC50 [3]: 0.01 µM
IC50 [5]: 30 µM
IC50 [6]: 160 µM
ED50 [7]: 0.8 mg/kg

Cc1ccc(CC2CCN(CCOc3ccc(O)c(C)c3)CC2)c(F)c1 [Ex. 147, 1-[2-(4-Hydroxy-3-methylphenoxy)ethyl]-4-(2-fluoro-4-methylbenzyl)piperidine hydrochloride]
IC50 [3]: 0.1 µM
IC50 [5]: 40 µM
IC50 [6]: 210 µM
ED50 [7]: 3 mg/kg

Cc1ccc(CC2CCN(CCOc3ccc(O)c(F)c3)CC2)c(F)c1 [Ex. 149, 1-[2-(4-Hydroxy-3-fluorophenoxy)ethyl]-4-(2-fluoro-4-methylbenzyl)piperidine hydrochloride]
IC50 [3]: 0.04 µM
IC50 [5]: 50 µM
IC50 [6]: 140 µM
ED50 [7]: 2 mg/kg

Cc1ccc(CC2CCN(CCOc3ccc(O)c(F)c3)CC2)cc1 [Ex. 151, 1-[2-(4-Hydroxy-3-fluorophenoxy)ethyl]-4-(4-methylbenzyl)piperidine hydrochloride]
IC50 [3]: 0.02 µM
IC50 [5]: 52 µM
IC50 [6]: 100 µM
ED50 [7]: 2.5 mg/kg

Cc1ccc(CC2(O)CCN(CCOc3ccc(O)cc3)CC2)cc1.Cl [Ex. 154, 1-[2-(4-Hydroxyphenoxy)ethyl]-4-hydroxy-4-(4-methylbenzyl)piperidine hydrochloride]
IC50 [3]: 0.02 µM
IC50 [5]: 250 µM
IC50 [6]: 230 µM
ED50 [7]: 1.5 mg/kg

Cl.Oc1ccc(SCCN2CCC(Cc3ccc(F)cc3)CC2)cc1 [Ex. 165, 4-(4-Fluorobenzyl)-1-(2-(4-hydroxythiophenoxy)ethyl)piperidine hydrochloride]
IC50 [3]: 0.05 µM
IC50 [5]: 65 µM
IC50 [6]: 301 µM
ED50 [7]: 0.5 mg/kg

COc1ccc(C2CCN(CCCCc3ccccc3)CC2)cc1 [Ex. 166, 4-(4-Methoxyphenyl)-1-(4-phenylbutyl)piperidine]
IC50 [3]: 170 µM
IC50 [5]: 270 µM
IC50 [6]: > 300 µM
ED50 [7]: 0.7 mg/kg

Oc1ccc(C2CCN(CCCCc3ccccc3)CC2)cc1 [Ex. 167, 4-(4-Hydroxyphenyl)-1-(4-phenylbutyl)piperidine]
IC50 [3]: 0.02 µM
IC50 [5]: 110 µM
IC50 [6]: 301 µM
ED50 [7]: 0.3 mg/kg

Cc1ccc(CC2CCN(CCOc3ccc(Cl)cc3)CC2)cc1.Cl [Ex. 168, 1-(2-(4-Chlorophenoxy)ethyl)-4-(4-methylbenzyl)piperidine hydrochloride]
IC50 [3]: 9.5 µM
IC50 [5]: > 300 µM
IC50 [6]: > 300 µM
ED50 [7]: 4 mg/kg

O=c1[nH]c2ccc(OCCCN3CCC(Cc4ccccc4)CC3)cc2[nH]1 [Ex. 170, 4-Benzyl-1-[3-(2-oxobenzimidazol-5-oxy)propyl]piperidine]
IC50 [3]: 0.04 µM
IC50 [5]: 62 µM
IC50 [6]: 230 µM
ED50 [7]: 10 mg/kg

S=c1[nH]c2ccc(OCCN3CCC(Cc4ccccc4)CC3)cc2[nH]1 [Ex. 171, 4-Benzyl-1-(2-(2-thioxobenzimidazol-5-oxy)ethyl)piperidine]
IC50 [3]: 0.04 µM
IC50 [5]: 72 µM
IC50 [6]: 170 µM
ED50 [7]: 5 mg/kg

Cc1ccc(CC2CCN(CCOc3ccc4[nH]c(=S)[nH]c4c3)CC2)cc1 [Ex. 174, 4-(4-Methylbenzyl)-1-(2-(2-thioxobenzimidazol-5-oxy)ethyl)piperidine]
IC50 [3]: 0.03 µM
IC50 [5]: 35 µM
IC50 [6]: 45 µM
ED50 [7]: 5 mg/kg

Fc1ccc(CC2CCN(CCOc3ccc4[nH]c(=S)[nH]c4c3)CC2)cc1 [Ex. 175, 4-(4-Fluorobenzyl)-1-(2-(2-thioxobenzimidazol-5-oxy)ethyl)piperidine]
IC50 [3]: 0.02 µM
IC50 [5]: 48 µM
IC50 [6]: 70 µM
ED50 [7]: 8 mg/kg

S=c1[nH]c2ccc(OCCN3CCC(Cc4ccc(Cl)cc4)CC3)cc2[nH]1 [Ex. 176, 4-(4-Chlorobenzyl)-1-(2-(2-thioxobenzimidazol-5-oxy)ethyl)piperidine]
IC50 [3]: 0.03 µM
IC50 [5]: 25 µM
IC50 [6]: 50 µM
ED50 [7]: 7.5 mg/kg

O=c1[nH]c2ccc(OCCN3CC=C(Cc4ccccc4)CC3)cc2[nH]1 [Ex. 177, 4-Benzyl-1-(2-(2-oxobenzimidazol-5-oxy)ethyl)-1,2,5,6-tetrahydropyridine]
IC50 [3]: 0.1 µM
IC50 [5]: 35 µM
IC50 [6]: 210 µM
ED50 [7]: 5 mg/kg

O=c1[nH]c2cc(OCCN3CCC(Cc4ccccc4)CC3)ccc2o1 [Ex. 181, 4-Benzyl-1-(2-(2-oxobenzoxazol-5-oxy)ethyl)piperidine]
IC50 [3]: 1 µM
IC50 [5]: 110 µM
IC50 [6]: 140 µM
ED50 [7]: 6 mg/kg

O=c1[nH]c2ccc(OCCN3CCC(Cc4ccccc4)CC3)cc2o1 [Ex. 182, 4-Benzyl-1-(2-(2-oxobenzoxazol-6-oxy)ethyl)piperidine]
IC50 [3]: 1 µM
IC50 [5]: 43 µM
IC50 [6]: 210 µM
ED50 [7]: > 20 mg/kg

Oc1ccc2cc(OCCN3CCC(Cc4ccccc4)CC3)ccc2c1 [Ex. 189, 4-Benzyl-1-(2-(2-hydroxynaphth-6-oxy)ethyl)piperidine]
IC50 [3]: 0.1 µM
IC50 [5]: 7 µM
IC50 [6]: 130 µM
ED50 [7]: 7 mg/kg

O=C1Cc2cc(OCCN3CCC(Cc4ccccc4)CC3)ccc2N1 [Ex. 194, 4-Benzyl-1-(2-(2-oxo-1,3-dihydroindol-5-oxy)ethyl)piperidine]
IC50 [3]: 0.06 µM
IC50 [5]: > 300 µM
IC50 [6]: > 300 µM
ED50 [7]: 2.5 mg/kg

C[C@]12N[C@H](Cc3ccccc31)c1ccccc12 [MK801]
effect in animal models of anxiety (anxiety): effective in a variety of animal models of anxiety
frequency of micturition (micturition): increased the frequency of micturition in rat

NC12CC3CC(CC(C3)C1)C2 [amantadine]
antiparkinsonian-like activity in animals (Parkinson's disease): showed antiparkinsonian-like activity in animals

CC12CC3CC(C)(C1)CC(N)(C3)C2 [memantine]
antiparkinsonian-like activity in animals (Parkinson's disease): showed antiparkinsonian-like activity in animals
